What was measured:
Assay in all cases: relative viability (nuclei count vs DMSO), 5 days (fraction); higher = more cells survive
QS11 = compound: C1CC2=C(C1)C=C(C=C2)OC3=NC(=C4C(=N3)N(C=N4)CC5=CC=C(C=C5)C6=CC=CC=C6)N[C@@H](CC7=CC=CC=C7)CO [QS11]
Summary of the method: (§1)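 Lung cancer cell lines in 1536-well plates were exposed by pinning to five library-drug doses (not always all listed) √10 apart, following an overnight hold at 37 °C. MetaXpress counted Hoechst-stained nuclei from 4× images taken after 5 days without medium change. Viability is the median ratio of treated-well to vehicle-well nuclei across plates. Plates required control CV below 25% and at least one doubling.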

AZ628 = compound: CC1=C(C=C(C=C1)NC(=O)C2=CC(=CC=C2)C(C)(C)C#N)NC3=CC4=C(C=C3)N=CN(C4=O)C [AZ628]
Summary of the method: as §1

Darinaparsin = compound: C[As](C)SC[C@H](NC(=O)CC[C@H](N)C(=O)O)C(=O)NCC(=O)O [Darinaparsin]
Summary of the method: as §1

AZ628 + OSI-027 = compound: CC1=C(C=C(C=C1)NC(=O)C2=CC(=CC=C2)C(C)(C)C#N)NC3=CC4=C(C=C3)N=CN(C4=O)C [AZ628] + COc1cccc2cc(-c3nc([C@H]4CC[C@H](C(=O)O)CC4)n4ncnc(N)c34)[nH]c12 [OSI-027] (partner 0.5 µM)
Summary of the method: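 Cells from lung cancer lines were seeded into 1536-well plates and, one day later, dosed by pin tool. Treatments were either a single drug or a fixed dose of an anchor drug with five library-drug doses (not always all listed) in √10 steps. After 5 days, nuclei were stained in a one-step fixation (final 0.05% Triton X-100, 1% formaldehyde, 1 ug/ml Hoechst) and counted on 4× images, and relative viability is the treated-to-vehicle nuclei ratio, as the median of duplicate plates.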

For LCLC-97TM1, the relative viability (QS11; 0.253 µM) was 1.15, the relative viability (QS11; 2.53 µM) was 0.998 and the relative viability (QS11; 8 µM) was 0.84. It also gave a relative viability (AZ628; 0.08 µM) of 1.17, a relative viability (AZ628; 0.253 µM) of 0.849 and a relative viability (AZ628; 0.8 µM) of 0.765. The relative viability (AZ628; 2.53 µM) was 0.761, the relative viability (AZ628; 8 µM) was 0.199 and the relative viability (Darinaparsin; 0.08 µM) was 1.13. For the same cell line, the relative viability (Darinaparsin; 0.8 µM) was 0.834, the relative viability (Darinaparsin; 2.53 µM) was 1 and the relative viability (Darinaparsin; 8 µM) was 1.02. It also gave a relative viability (AZ628 + OSI-027; first compound 0.08 µM) of 0.577, a relative viability (AZ628 + OSI-027; first compound 0.253 µM) of 0.328 and a relative viability (AZ628 + OSI-027; first compound 0.8 µM) of 0.315. The relative viability (AZ628 + OSI-027; first compound 2.53 µM) was 0.327 and the relative viability (AZ628 + OSI-027; first compound 8 µM) was 0.198.
